The subject of one test is untransfected T24 cells. As to the kind of experiment: Inositol phosphate SPA assay in untransfected T24 cells. It is filed as cell-based. The following applies: 1 mM carbachol.
The next test deals with parent T24 cell line. The test is described as follows: FLIPR intracellular calcium in parent T24 cell line. In kind it is cell-based.
Test [1] deals with acetylcholine receptors naturally expressed in HEK293 cells. As to the kind of experiment: Inositol phosphate SPA assay in wild-type HEK293 cells. In kind it is cell-based, human. Conditions: 1 mM carbachol, 5 mM LiCl where used (FIG. 9). From the text: See Example 8 for details.
Test [2] has as its system untransfected CHO/NFAT cells. The test is described as follows: Inositol phosphate assay in untransfected CHO/NFAT cells. In kind it is cell-based. Conditions: untransfected CHO/NFAT cells (FIGS. 7A-D), 10 nM NPFF. The text has this:
There was no response to NPFF in untransfected CHO/NFAT cells (FIGS. 7A-D).

Where no end group is shown, it is not given here.

Take `C[N+](C)(C)CCOC(N)=O` [carbachol]: the “response to agonist (inositol phosphates)” value with untransfected T24 cells is on record as “no response”. For the same compound, the “rise in intracellular calcium” value with parent T24 cell line is listed as “no rise in intracellular calcium”. Besides, in test [1], the inositol phosphate level entry is “increase of inositol phosphate”.

For the compound “NPFF: agonist used at 10 nM to activate the human neuropeptide FF receptor (FLFQPQRF; ends and bridges not checked; UniProt O15130 69-76, looked up)”, the “response to agonist (inositol phosphates)” value in test [2] is on record as “no response”.

The values are drawn from patent US20040180394A1, “Assays for inositol phosphates” (priority 2001, published 2004).
